Patent US20070128217A1 (priority 2003, published 2007)

Key:
[1] = system: rabbit serum obtained by immunizing a rabbit with the SARS-CoV strain Frankfurt 1; assay type: binding; set-up: Binding of a rabbit serum to linear peptides / Binding of a rabbit serum to looped peptides / Rabbit serum linear peptides / Rabbit serum looped peptides / Binding of a rabbit serum to linear peptides of protein N of SARS-CoV Urbani (Rabbit serum linear peptides) / Binding of a rabbit serum to looped/cyclic peptides of protein N of SARS-CoV Urbani (Rabbit serum looped peptides): unit not given here
[2] = system: control sera (pooled serum of ten healthy LUMC hospital workers; commercial negative donor pooled serum from the Dutch bloodbank); assay type: binding, human; set-up: Binding of Control serum LUMC to linear peptides / Binding of Control serum Blood-bank to linear peptides / Binding of Control serum LUMC to looped peptides / Binding of Control Serum Blood-Bank to Looped peptides / Binding of Control serum LUMC to linear peptides of the protein M of SARS-CoV Urbani / Binding of Control serum Blood-bank to linear peptides of the protein M of SARS-CoV Urbani / Binding of Control serum LUMC to looped peptides of the protein M of SARS-CoV Urbani / Binding of Control Serum Blood-Bank to Looped peptides of the protein M of SARS-CoV Urbani: unit not given here
[3] = system: recombinant human anti-SARS-CoV antibody 03-018; assay type: binding; set-up: Binding of antibody 03-018 to linear peptides of the N protein of SARS-CoV Urbani / Binding of antibody 03-018 to looped/cyclic peptides of the N protein of SARS-CoV Urbani: unit not given here
[4] = system: antibodies in sera from SARS patients (sera 1a, 1b, 2, 6, 37, 62, London, SARS-yellow, SARS-green); assay type: binding, human; set-up: Binding of serum 6 to linear peptides of protein X1 of SARS-CoV Urbani / Binding of serum 37 to linear peptides of protein X1 of SARS-CoV Urbani / Binding of serum 6 to looped/cyclic peptide (PEPSCAN-ELISA) / Binding of serum 37 to looped/cyclic peptide (PEPSCAN-ELISA) / Binding of serum 37 to looped/cyclic peptides of protein X1 of SARS-CoV Urbani / Binding of serum 6 to linear peptides of protein X2 / Binding of serum 37 to linear peptides of protein X2 / Binding of serum 37 to looped/cyclic peptides of protein X2 of SARS-CoV Urbani / Binding of serum 6 to linear peptides of protein M of SARS-CoV Urbani / Binding of serum 37 to linear peptides of protein M of SARS-CoV Urbani / Binding of serum 6 to looped/cyclic peptides of protein M of SARS-CoV Urbani / Binding of serum 37 to looped/cyclic peptides of protein M of SARS-CoV Urbani / Binding of serum 6 to linear peptides of protein X3 of SARS-CoV Urbani / Binding of serum 37 to linear peptides of protein X3 of SARS-CoV Urbani / Binding of serum 37 to looped/cyclic peptides of protein X3 of SARS-CoV Urbani / Binding of serum 6 to linear peptides of protein X4 of SARS-CoV Urbani / Binding of serum 37 to linear peptides of protein X4 of SARS-CoV Urbani / Binding of serum 37 to looped/cyclic peptides of protein X4 of SARS-CoV Urbani / Binding of serum 6 to linear peptides of protein X5 of SARS-CoV Urbani / Binding of serum 37 to linear peptides of protein X5 of SARS-CoV Urbani / Binding of serum 37 to looped/cyclic peptides of protein X5 of SARS-CoV Urbani / Binding of serum 6 to linear peptides of protein N of SARS-CoV Urbani / Binding of serum 37 to linear peptides of protein N of SARS-CoV Urbani / Binding of serum 6 to linear peptide (PEPSCAN-ELISA) / Binding of serum 1a to looped/cyclic peptides of protein N of SARS-CoV Urbani / Binding of serum 1b to looped/cyclic peptides of protein N of SARS-CoV Urbani / Binding of serum 2 to looped/cyclic peptides of protein N of SARS-CoV Urbani / Binding of serum 6 to looped/cyclic peptides of protein N of SARS-CoV Urbani / Binding of serum 37 to looped/cyclic peptides of protein N of SARS-CoV Urbani / Binding of serum 62 to looped/cyclic peptides of protein N of SARS-CoV Urbani / Binding of serum London to looped/cyclic peptides of protein N of SARS-CoV Urbani / Binding of serum SARS-green to looped/cyclic peptides of protein N of SARS-CoV Urbani: unit not given here

Sequence	Binding of a rabbit serum to linear peptides of protein N of SARS-CoV Urbani (Rabbit serum linear peptides) [1]	Binding of a rabbit serum to looped/cyclic peptides of protein N of SARS-CoV Urbani (Rabbit serum looped peptides) [1]	Binding of antibody 03-018 to linear peptides of the N protein of SARS-CoV Urbani [3]	Binding of antibody 03-018 to looped/cyclic peptides of the N protein of SARS-CoV Urbani [3]	Binding of serum 1a to linear peptides of protein N of SARS-CoV Urbani [4]	Binding of serum 1a to looped/cyclic peptides of protein N of SARS-CoV Urbani [4]	Binding of serum 1b to linear peptides of protein N of SARS-CoV Urbani [4]	Binding of serum 1b to looped/cyclic peptides of protein N of SARS-CoV Urbani [4]	Binding of serum 2 to linear peptides of protein N of SARS-CoV Urbani [4]	Binding of serum 2 to looped/cyclic peptides of protein N of SARS-CoV Urbani [4]	Binding of serum 6 to linear peptides of protein N of SARS-CoV Urbani [4]	Binding of serum 6 to looped/cyclic peptides of protein N of SARS-CoV Urbani [4]	Binding of serum 37 to linear peptides of protein N of SARS-CoV Urbani [4]	Binding of serum 37 to looped/cyclic peptides of protein N of SARS-CoV Urbani [4]	Binding of serum 62 to linear peptides of protein N of SARS-CoV Urbani [4]	Binding of serum 62 to looped/cyclic peptides of protein N of SARS-CoV Urbani [4]	Binding of serum London to linear peptides of protein N of SARS-CoV Urbani [4]	Binding of serum London to looped/cyclic peptides of protein N of SARS-CoV Urbani [4]	Binding of serum SARS-green to linear peptides of protein N of SARS-CoV Urbani [4]	Binding of serum SARS-green to looped/cyclic peptides of protein N of SARS-CoV Urbani [4]	further results
LPNNTASWFTALTQH	0.1	0.6	0.1	0.3	0.2	0.4	0.1	0.3	0.2	0.4	0.1	0.3	0.7	0.8	0.7	0.7	0.4	0.3	0.3	0.7	Binding of Control Serum Blood-Bank to Looped peptides [2]: 0.8; Binding of Control serum Blood-bank to linear peptides [2]: 0.7; Binding of Control serum LUMC to linear peptides [2]: 0.7; Binding of Control serum LUMC to looped peptides [2]: 0.7; Binding of serum SARS-yellow to linear peptides of protein N of SARS-CoV Urbani [4]: 0.5; Binding of serum SARS-yellow to looped/cyclic peptides of protein N of SARS-CoV Urbani [4]: 0.7
LQNSMSGASADSTQA	0.9	0.4	0.2	0.2	0.2	0.2	0.1	0.1	0.1	0.4	0.2	0.0	0.6	0.5	0.4	0.1	0.6	0.1	0.4	0.0	Control Serum Blood-Bank Looped peptides [2]: 0.0; Control serum Blood-bank linear peptides [2]: 0.7; Control serum LUMC linear peptides [2]: 0.5; Control serum LUMC looped peptides [2]: 0.2; Binding of serum SARS-yellow to linear peptides of protein N of SARS-CoV Urbani [4]: 0.6; Binding of serum SARS-yellow to looped/cyclic peptides of protein N of SARS-CoV Urbani [4]: 0.0
LRFPRGQGVPINTNS	0.2	0.6	0.1	0.2	0.2	0.3	0.1	0.2	0.3	0.4	0.2	0.2	0.6	0.6	0.6	0.4	0.5	0.4	0.4	0.6	Binding of Control Serum Blood-Bank to Looped peptides [2]: 0.6; Binding of Control serum Blood-bank to linear peptides [2]: 0.7; Binding of Control serum LUMC to linear peptides [2]: 0.7; Binding of Control serum LUMC to looped peptides [2]: 0.6; Binding of serum SARS-yellow to linear peptides of protein N of SARS-CoV Urbani [4]: 0.5; Binding of serum SARS-yellow to looped/cyclic peptides of protein N of SARS-CoV Urbani [4]: 0.4
LSPRWYFYYLGTGPE	0.2	1.1	0.1	0.2	0.3	0.3	0.3	0.3	0.2	0.5	0.2	0.2	1.0	0.8	0.9	0.8	0.5	0.3	0.9	0.6	Binding of Control Serum Blood-Bank to Looped peptides [2]: 0.5; Binding of Control serum Blood-bank to linear peptides [2]: 0.7; Binding of Control serum LUMC to linear peptides [2]: 0.8; Binding of Control serum LUMC to looped peptides [2]: 0.6; Binding of serum SARS-yellow to linear peptides of protein N of SARS-CoV Urbani [4]: 0.6; Binding of serum SARS-yellow to looped/cyclic peptides of protein N of SARS-CoV Urbani [4]: 0.5
